From US9718771B2, “Aniline derivative, pharmaceutical composition containing same, and use thereof” (Kissei Pharmaceutical Co., Ltd., priority 2014, dated 2017)

Legend:
[1] = target: human S1P1 (EDG-1) (Homo sapiens (Human), UniProt P21453); assay: Confirmation test of antagonistic activity for human S1P1 receptor (35S-GTP binding, cell membranes); type: biochemical; conditions: inhibition of 35S-GTP binding induced by S1P1 receptor selective agonist; HEK293 membranes expressing human S1P1
Procedure: Confirmation Test of Antagonistic Activity for Human S1P1 Receptor
Test compounds were tested by reduction of functional binding activity of ^35S-GTP (guanosine 5′-O-[gamma-thio] triphosphate, PerkinElmer) to G protein using cell membranes expressing human S1P1 (EDG-1). S1P1-pcDNA3.1/V5-His-Topo vector was prepared by inserting cDNA (NM_001400) encoding human S1P1 into the expression vector, pcDNA3.1/V5-His-Topo (registered trademark) (Invitrogen). Next, the above S1P1-pcDNA3.1 vector was transfected into HEK293 cells by Lipofectamine2000 (registered trademark) (Invitrogen). The transfected cells were incubated with D-MEM liquid medium each containing 10% FBS (Fetal bovine serum), 100 U/mL penicillin, 100 μg/mL streptomycin and 1 mg/mL Geneticin (registered trademark) (Invitrogen) in an incubator under the condition of 5% CO2 at 37° C. and Geneticin (registered mark)-resistant cell line stably expressing S1P1 were obtained. The obtained stably S1P1-expressing cells were incubated with D-MEM liquid medium each containing 10% FBS and 0.5 mg/mL Geneticin (registered trademark) in an incubator under the condition of 5% CO2 at 37° C. The cells grown to confluence were harvested by a buffer solution containing 50 mM Tris, 2 mM EDTA (ethylmediaminetetraacetic acid) and 125 mM sodium chloride, and centrifuged at 1880×g, 4° C. for 10 minutes. After a supernatant was removed, a cell pellet was resuspended by the same buffer solution. For making cell membranes fragile, this cell suspension was frozen at −80° C. and then thawed. The cells were centrifuged at 1880×g, 4° C. for 10 minutes, and a supernatant was removed. The cell pellet was suspended by adding the same buffer solution and a fracture solution (10 mM sodium bicarbonate and 5 mM EDTA, pH 7.5) at a ratio of 2:1. The cells were fractured by subjecting the cell suspension to ultrasonication, and a cell membrane fraction was isolated by centrifugation at 1880×g, 4° C. for 10 minutes and ultracentrifugation of the supernatant at 80000×g, 4° C. for 30 minutes. A pellet of the cell membrane fraction was suspended by the fracture solution containing protease inhibitor cocktail (Roche) and stored at −80° C. until use. A protein concentration of the cell membrane fraction was determined using BCA Protein Assay Kit (Pierce) in accordance with an attached protocol.
Inhibitory activity evaluation was performed by multi-screen (registered trademark) HTS 96-well plate (Millipore) using the cell membrane fraction stably expressing S1P1 obtained by the above operation. 25 μL of assay solution (50 mM Tris, 100 mM sodium chloride, 5 mM magnesium chloride, 1 mM EDTA, 1 mM DTT (dithiothreitol), 10 μM GDP (guanosine diphosphate) and 0.5% BSA (bovine serum albumin), pH 7.4), 25 μL of test compounds solution diluted by assay solution and 25 μL of the membrane fraction (0.2 μg protein/μL) were added to each well, and the mixture was gently shaken at room temperature: for 30 minutes. Then, 25 μL of ^35S-GTP, and 25 μL of 50 nM S1P1 receptor selective agonist (1-[4-(4-phenyl-5-trifluoromethylthiophen-2-ylmethoxy)benzyl]azetidine-3-carboxylic acid, “J. Med. Chem.”, 2004, vol. 47, pp. 6662-6665, compound 18) were added to each well, respectively, and it was reacted at room temperature for 60 minutes. After the reaction, a reaction solution of each well was suction-filtered. After suction filtration, ice-colded wash solution (50 mM Tris, 100 mM sodium chloride, […] and 1 mM EDTA, pH 7.4) was added to each well, and moreover filters were washed by suction filtration. This wash procedure was performed three times. A bottom of the plate containing the filters was dried at 60° C. After drying, 30 μL of MicroScinti-40 (PerkinElmer) was added to each well, and the radioactivity adsorbed on the filter was determined by TopCount NXT (registered trademark) (PerkinElmer) after shaking for 30 minutes at room temperature. […]

[2] = tested on: blood lymphocytes; assay: Confirmation test for reduction effects on the number of lymphocytes; type: in vivo, Male Sprague-Dawley rats; conditions: rat, oral; for Number of lymphocytes (% of Vehicle) After 6 hours: 6 hours after administration; for Number of lymphocytes (% of Vehicle) After 24 hours: 24 hours after administration; for Number of lymphocytes (% of Vehicle) After 48 hours: 48 hours after administration
Procedure: Confirmation Test for Reduction Effects on the Number of Lymphocytes
Reduction effects on the number of blood lymphocytes by test compounds were confirmed using Male Sprague-Dawley rats (Japan SLC, 7-weeks-old in use). Administration solutions for test compounds were prepared on hot-plate at 50° C. After test compounds were dissolved by DMSO (dimethyl sulfoxide, Wako Pure Chemicals) of 1/10 volume of the total volume, WellSolve (Celeste) of 1/10 volume of the total volume was added to this solution. Further, distilled water (Otsuka Pharmaceutical Factory) of 8/10 volume of the total volume was added to this solution, and the administration solutions for test compounds were prepared. A solution, prepared in the same volume ratios of DMSO. WellSolve and distilled water as the administration solution for test compounds, was used as a solvent (Vehicle). Vehicle or test compound was administered orally to rats at 1 mL/body. After 6, 24 and 48 hours from administration of vehicle or test compounds, rats were held on the board at supine position under inhalation anesthesia with isoflurane (Abbott Japan). Blood samples (200 to 250 μL) were collected from the cervical vein of this rat using 1 mL syringes with needles of 25G. The collected blood samples were transferred to a microtube treated with EDTA-2K (Japan Becton Dickinson), and stored at room temperature after gently mixing with inversion. The number of lymphocytes was measured by ADVIA (registered mark) (Bayer), which is a multi-parameter automated blood cell counter using this blood samples. The average number of lymphocytes in vehicle-treated group (vehicle group) was defined as 100%, and the average number of lymphocytes in each test compound-treated group was calculated as % of vehicle. As Comparative Example 2, 1-{5-[1-(4-chloro-3-methyl-phenyl)-propylamino]-2-methyl-benzyl}-azetidine-3-carboxylic acid (patent literature 1, Example 4) was evaluated as well.

Sequence of human S1P1 (EDG-1) (P21453 whole entry): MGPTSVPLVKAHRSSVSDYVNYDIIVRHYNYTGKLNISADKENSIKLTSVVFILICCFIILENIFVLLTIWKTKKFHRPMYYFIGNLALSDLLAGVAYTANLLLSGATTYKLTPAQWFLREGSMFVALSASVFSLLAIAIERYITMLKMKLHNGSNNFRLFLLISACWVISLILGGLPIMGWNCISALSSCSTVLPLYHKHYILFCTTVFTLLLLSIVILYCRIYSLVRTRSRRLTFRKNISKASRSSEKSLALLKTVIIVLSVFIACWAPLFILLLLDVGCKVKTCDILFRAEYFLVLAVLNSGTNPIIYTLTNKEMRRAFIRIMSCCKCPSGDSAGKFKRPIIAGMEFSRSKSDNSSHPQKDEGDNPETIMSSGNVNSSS

| Structure (SMILES) | IC50 [1] | Number of lymphocytes (% of Vehicle) After 6 hours ([2]; 10 mg/kg) | Number of lymphocytes (% of Vehicle) After 24 hours ([2]; 10 mg/kg) | Number of lymphocytes (% of Vehicle) After 48 hours ([2]; 10 mg/kg) | Number of lymphocytes (% of Vehicle) After 6 hours ([2]; 1 mg/kg) | Number of lymphocytes (% of Vehicle) After 24 hours ([2]; 1 mg/kg) | Number of lymphocytes (% of Vehicle) After 48 hours ([2]; 1 mg/kg) |
| --- | --- | --- | --- | --- | --- | --- | --- |
| CCN(c1ccc(Cl)c(C)c1)C(C)c1ccc(C)c(CN2CC(C(=O)O)C2)c1 (centres unmarked) [Compound 2-6, 1-(5-{1-[(4-Chloro-3-methylphenyl)(ethyl)amino]ethyl}-2-methylbenzyl)azetidine-3-carboxylic acid] | 1 nM | 9.9 % of Vehicle | 14.1 % of Vehicle | 65.7 % of Vehicle | – | – | – |
| CCN(c1ccc(Cl)c(C(F)(F)F)c1)C(C)c1ccc(C)c(CN2CC(C(=O)O)C2)c1 (centres unmarked) [Compound 2-7, 1-(5-{1-[(4-Chloro-3-trifluoromethylphenyl)(ethyl)amino]ethyl}-2-methylbenzyl)-azetidine-3-carboxylic acid] | 1.2 nM | 10.9 % of Vehicle | 10.6 % of Vehicle | 13.2 % of Vehicle | 15.0 % of Vehicle | 11.1 % of Vehicle | 66.8 % of Vehicle |
